Data as given in publication PMC4157868, “Real-Time Analysis of Imatinib- and Dasatinib-Induced Effects on Chronic Myelogenous Leukemia Cell Interaction with Fibronectin” (PLoS ONE, 2014).

What was measured:
[1] = system: JURL-MK1 cells on fibronectin; test: kinetics of JURL-MK1 cell adhesivity to fibronectin (adherent cell fraction); type: cell-based, human
Description: Supplementary file pone.0107367.s001.pdf: Figure S1 Kinetics of dasatinib-induced cell death and changes in cell adhesivity to fibronectin. […] Cell fraction in sub-G1 region of cell cycle phase distribution in samples stained with propidium iodide. […] (PDF) Click here for additional data file.

[2] = system: JURL-MK1 and MOLM-7 cells on fibronectin; test: end-point adherent cell fraction on fibronectin-coated wells
Protocol: Briefly, the cells (1×10^4) were seeded into fibronectin-coated wells on a microtitration plate and incubated for 1 h at 37°C. Then, the cells were washed wih PBS/Ca^2+/Mg^2+ and the remaining cells were quantified by means of fluorescent labelling (CyQuant Cell Proliferation Assay Kit; Molecular Probes). The adherent cell fraction (ACF) was calculated using the fluorescence signal from fibronectin-coated plate and the signal obtained from a reference plate that contained the total cell number.

[3] = system: active SFKs in MOLM-7 cells; test: immunofluorescence of phospho-SFK in adhesion sites; type: cell-based, human; conditions: MOLM-7 on fibronectin
Protocol: The cells were plated on fibronectin coated coverslips or glass bottom dishes, incubated for 60 minutes in CO2 incubator, fixed with 2% paraformaldehyde, permeabilized in 0.3% Triton/PBS and incubated with anti-phospho-SRC family primary antibody and a secondary antibody (Alexa Fluor 488 Goat Anti-Rabbit). F-actin was labeled with rhodamine phalloidin (Molecular Probes). Samples were analyzed using an Olympus Fluoview FV1000 confocal laser scanning microscope.
To support our hypothesis that SFKs may be involved in regulation of cell interaction with fibronectin, we studied the intracellular localization of active SFKs using the phospho-specific anti-SFK antibody. […] In JURL-MK1 cells, the active SFKs were found mainly in the contours of cell-surface contact areas and their localization to the sites of the closest contact was less evident due to different morphology (Figure 8B). […] As the main SFKs in JURL-MK1 and MOLM-7 were LYN and LYN+LCK, respectively, we also analyzed the intracellular localization of these individual kinases.
(PDF) Click here for additional data file.

[4] = system: JURL-MK1 and MOLM-7 cells on fibronectin; test: real-time microimpedance, cell interaction with fibronectin, BCR-ABL-positive cells; type: cell-based, human; conditions: dasatinib 100 nM, clinically relevant dose
Protocol: RTCA xCELLigence DP system (Acea Biosciences, San Diego, CA, U.S.A.) was placed in an incubator (at 37°C) with 5% CO2 content. […] The microimpedance signal (cell index) was set to zero in these conditions. […] DMSO (0.1%) was also added to control wells.
Cells were seeded into E-plates and incubated for 1–2 h to allow for cell attachment to the coated cell bottom. After signal stabilization, the drug was added in a small drop while the corresponding solvent was added to control wells as any mechanical perturbation usually produced minor changes, too.
The cells (6×10^4 per well) were seeded into fibronectin-coated E-plates. After the microimpedance signal stabilization, the appropriate inhibitor was added in triplets. […] Microimpedance signal (cell index) was normalized to 1 at the time of inhibitor addition.

[5] = system: HEL and JURKAT cells on fibronectin; test: real-time microimpedance, cell interaction with fibronectin, BCR-ABL-negative cells; type: cell-based, human; conditions: low-dose (several nM) dasatinib
Description: (§1) (PPTX) Click here for additional data file.
as §1

[6] = system: JURL-MK1 and MOLM-7 cells; test: apoptosis onset: caspase activation (Ac-DEVD-AFC), Annexin V staining; type: cell-based, human
[7] = system: JURL-MK1 cells on fibronectin; conditions: cited from earlier work

Compound: CC(C)[C@H](NC(=O)c1ccc2ccccc2n1)C(=O)N[C@@H](CC(=O)O)C(=O)COc1c(F)cccc1F [Q-VD-OPh]
- effect on the dasatinib-induced decrease of cell adhesivity to fibronectin ([1]; 10 µM Q-VD-OPh added together with 2 nM dasatinib, 24 h): This decrease was prevented

Compound: Cc1nc(Nc2ncc(C(=O)Nc3c(C)cccc3Cl)s2)cc(N2CCN(CCO)CC2)n1 [dasatinib]
- change in number of cells attached to fibronectin ([2]; dasatinib 1 to 10 nM, JURL-MK1 and MOLM-7): mild increase in the number of attached cells
- change in CML cell binding to fibronectin ([2]; dasatinib at therapeutic concentrations (100 nM)): does not enhance CML cell binding to fibronectin
- phospho-SFK fluorescent signal at adhesion sites ([3]; 100 nM dasatinib, 30 min): complete disappearance of the green fluorescent signal from adhesion sites
- effect on CML cell binding to fibronectin [4]: almost no effect
- cell adhesivity to fibronectin after 24 h treatment ([1]; dasatinib 2 nM): cell adhesivity to fibronectin lowered
- change of cell binding to fibronectin [5]: no significant change
- number of early apoptotic cells, Annexin V staining ([6]; 10 nM dasatinib, 6 h, JURL-MK1 and MOLM-7): no significant increase in the number of early apoptotic cells
- time of treatment at which caspases became activated ([6]; dasatinib 10 nM): about 6 h

Compound: Cc1ccc(NC(=O)c2ccc(CN3CCN(C)CC3)cc2)cc1Nc1nccc(-c2cccnc2)n1 [imatinib]
- cell fraction adhering to FN ([7]; imatinib, first several hours of treatment, JURL-MK1): the cell fraction adhering to FN increased

Compound: CC(C)(C)n1nc(-c2ccc(Cl)cc2)c2c(N)ncnc21 [PP2]
- phospho-SFK fluorescent signal at adhesion sites ([3]; 10 µM PP2, 30 min): The same effect was also reached
- effect on JURL-MK1 cell adhesivity to FN ([7]; PP2, recently reported by the authors): increases JURL-MK1 cell adhesivity to FN
